Data published in a melting point compilation (Tetko et al.; mined from patent text by program, amines drawn as free bases though some values may be those of a salt).

SMILES	melting point [°C]
CCCc1nc2ccccc2c(C(=O)O)c1Oc1ccc(-c2ccccc2-c2nnn(C(c3ccccc3)(c3ccccc3)c3ccccc3)n2)cc1	167 to 170
CCc1cn(C2CC(O)C(CNC(=O)Cc3c(Cl)cccc3Cl)O2)c(=O)[nH]c1=O (stereo not given)	296 to 297
Nc1ccccc1COc1ccn(-c2ccc(Cl)cc2)n1	81 to 83
CC(C)c1ccccc1SCc1cn(-c2ccc(S(C)(=O)=O)cc2)c(-c2ccc(Cl)cc2)n1	68 to 70
CC(C)NC(=O)N1CCc2[nH]cnc2C1	190
CC(C)(C)OC(=O)NCc1cc(C(=O)O)ccn1	207
CC(=O)Nc1c(O)cc(C(=O)O)cc1[N+](=O)[O-]	215 to 220
CO[C@H]1CC[C@H]([C@H]2CC[C@H](CCC3OCCO3)CC2)CC1	74
CCCCc1nn2c(C)c(-c3ccccc3)nc2n1Cc1ccc(-c2ccccc2-c2nnn[nH]2)cc1	207 to 208
CN(O)C(=O)NCCc1cc2ccccc2o1	120
Cc1cc(C(F)(F)F)nn1CC(=O)N1CCC(c2csc(NC(=O)Cc3c(F)cccc3Cl)n2)CC1	249 to 251
Cc1c(CCN(C(=O)C(F)(F)F)c2cc3ccccc3n2C)ncn1S(=O)(=O)N(C)C	156 to 158
O=C(O)c1ccc(NCc2ccc(Cl)s2)cc1	177 to 178
COc1c2c(nc3ccccc13)CCN(Cc1ccccc1)CC2	< 20
COc1ccc(Oc2ccc(NC(=O)N3CCc4ccccc4CC3)cn2)cc1	156 to 157
COc1cccc2cc(SCCC(=O)O)n(C)c12	120 to 122
COc1cc2c(CCN)c[nH]c2cc1Cl	150
NC(CCOc1ccncc1)C(=O)c1ccccc1CO (stereo not given)	108 to 109
CCCCC1(CCCC)CS(=O)(=O)c2ccc(N(C)C)cc2[C@@H](c2ccc(OCCCCC(=O)O)cc2)[C@H]1O	76 to 79
CN(C)C=Nc1nc(OC(=O)c2ccccc2)ncc1F	136 to 138
N[C@@H](CCC(=O)O)C(=O)N[C@@H](Cc1ccccc1)C(=O)O	147 to 149
O=[N+]([O-])C(CO)(CO)CCc1ccc(Sc2cccc(OCc3ccccc3)c2)cc1Cl	69 to 70
Cc1ncccc1C(C#N)N1CCN(C(=O)CC(NC(=O)c2cccc(OCc3ccc4ccccc4n3)c2)c2ccccc2)CC1 (stereo not given)	101 to 104
O=C(OCC1OC(OC(=O)c2ccccc2)C(O)C1OC(=O)c1ccccc1)c1ccccc1 (stereo not given)	137 to 138

SMILES	melting point [°C]
O=CC1=C(Cl)C(=CO)CCC1	127
CCOc1ccc2c(c1)C(C)(c1cc(C(=O)ON3C(=O)CCC3=O)ccc1Cl)C(=O)N2S(=O)(=O)c1ccc(C(=O)NC(C)(C)C)cc1 (stereo not given)	168
O=C1C(=CO)CSc2c(Cl)cccc21	97 to 99
CCCOc1ccccc1-c1nc2cc3c(cc2c(=O)[nH]1)NCN3Cc1ccc(OC)cc1	130 to 131
CC(C)(C)OC(=O)COc1ccc2sc(C(=O)Nc3ccccc3NC(=O)OC(C)(C)C)cc2c1	166
CC(C)(C)c1cc(C=O)cc(Cl)c1O	123
CCCc1c[nH]nc1OCc1ccc2ccccc2n1	94 to 95
O=CC(Br)c1ccc(Cl)cc1 (stereo not given)	178
O=C(O)CCCCCc1nn(-c2ccc([N+](=O)[O-])cc2)c2c1CCC2	131 to 132
COC(=O)CCCc1cc2nc(Cl)ccc2n1S(=O)(=O)c1ccc2ncsc2c1	55
CCN1C(=O)C(=C2C=C(N3CCCC3)CC(C)(C)C2)SC1=S	234 to 235
Oc1ccnn1-c1c(Cl)cc(C(F)(F)F)cc1Cl	223 to 225
CC(C)CCOC(=O)c1cc2c([nH]c3ccccc32)c(-c2ccc3c(n2)C(=O)C(NC(=O)CCl)=CC3=O)n1	280 to 284
N#Cc1cc(-c2c(-c3ccccc3)nn3ccccc23)cn(CCC(=O)O)c1=O	196 to 200
COc1ccc(-c2cnc3cc4cnn(CC(=O)O)c4cc3n2)cc1F	> 260
O=C(O)CCC1C2CC3CC(C2)CC1C3 (stereo not given)	116
COc1cc2[nH]c(S)nc2cc1C	> 310
CC(=O)NC1=NN(c2ccc(Cl)cc2)CC1C (stereo not given)	172 to 173
CC(=O)Nc1ccc(S(=O)(=O)N[C@@H]2COCOC[C@H]2O)cc1 (relative stereo)	161 to 163
Cc1noc(-c2cccc(CN3C(=O)C4(COc5cc6c(cc54)OCCO6)c4ccccc43)c2)n1 (stereo not given)	80 to 89
Cc1cc2c(-c3cccc(C(=O)O)c3)c(CC(=O)Nc3ccc(Cl)cc3C(F)(F)F)c(=O)oc2cc1Cl	270 to 272
COc1ccc2c(c1)C(=O)C1CCCCN1C2 (stereo not given)	117 to 119
COC(=O)c1cccc(-c2nc(C(Cl)(Cl)Cl)nc(C(Cl)(Cl)Cl)n2)c1	115 to 117
CCCC1CCCCCc2c1oc(=O)c(C(c1ccccc1)C1CC1)c2O (stereo not given)	78 to 84

SMILES	melting point [°C]
CC(C)NCC(O)COc1nccnc1C1CNCCO1 (stereo not given)	74 to 76
CCC1CC2C3CCC4=CC(=O)CCC4C3CCC2(C)C1OC(=O)CBr (stereo not given)	118 to 120
CCCCCCCCCCCCCCCC(=O)C1C(=O)CC(C#N)CC1=O (stereo not given)	66 to 69
CCN(CC)CCOc1cccc2c1c1ccccc1n2Cc1ccccc1	79 to 80.5
Cc1cc(C)c(C(O)c2ccc(C(C)C)cc2)c(O)c1 (stereo not given)	103 to 104
COc1ccccc1NC(=O)C1=C(O)c2ccc3ccccc3c2S(=O)(=O)N1C	198 to 200
COc1ccccc1-c1nc2cc(C)ccc2c(=O)[nH]1	165 to 170
Nc1ccc(C2CCNC2)c(F)c1 (stereo not given)	108 to 109
CCCc1c(OCCCS(=O)(=O)c2ccc(CC(=O)O)c(Cl)c2Cl)ccc(C(C)=O)c1O	180 to 181
Cn1cc(C(F)(F)F)ccc1=O	125 to 129
CC(C)(C(=O)O)c1ccc(C(=O)CCCN2CCC(=C3c4ccccc4CCc4ccccc43)CC2)cc1	122 to 125
COc1cc2c(c3c1OC(C)(C)C3)C(c1ccnc(Cl)c1)=NC(C)(C)C2	139 to 140
N#Cc1cc(-c2ccoc2)c2ccc(OCc3cccc(-c4ccccc4)n3)cc2c1	131 to 133
CC(=O)Nc1c(Cl)cnn(-c2ccccc2)c1=O	177 to 178
CNC(=O)N1CCN(CC(O)COc2ccccc2)CC1 (stereo not given)	91 to 95
CCOC(=O)CCC1CCCC2CCC(=O)NC21 (stereo not given)	45 to 50
Cc1cc(C)c2cc3c(cc2n1)C(NCCc1ccccc1)C(O)C(C)(C)O3 (stereo not given)	144 to 147
CC(C)(C)C1=CC(=Cc2cccc([N+](=O)[O-])c2)C=C(C(C)(C)C)C1=O	118
Cc1cc(Nc2ccc(C#N)cc2)c([N+](=O)[O-])c(C)n1	171 to 172
COc1c(Cl)ccc(-c2cc(N)c(Cl)c(C(=O)NOC3CCCO3)n2)c1F (stereo not given)	180 to 183
CCC(=O)N1N=C(c2ccc([N+](=O)[O-])cc2)c2cc(Cl)ccc2CC1C (stereo not given)	160 to 161
O=C(O)c1ccc(Nc2c(C(=O)O)cc(Cl)cc2[N+](=O)[O-])cc1	264 to 266
